These results are taken from patent US11826402B2, “Combination therapy involving antibodies against claudin 18.2 for treatment of metastatic pancreatic adenocarcinoma” (Astellas Pharma Inc., priority 2013, dated 2023).

The test system of data set [1] is established MiaPaCa-2-LVT xenograft tumors. Put plainly: Established MiaPaCa-2-LVT xenograft tumors, high dose gemcitabine. Particulars: established MiaPaCa-2-LVT tumors, gemcitabine 2×150 mg/kg per week, independent from IMAB362. The format is in vivo, mice. From the text:
9 days after subcutaneous tumor inoculation, tumor bearing mice reorganised in homogenous treatment groups with 8 animals per group and treatment was initiated.

For the next data set, the system named is Suit2-LVT metastases. As to the kind of experiment: Suit2-LVT metastasis model (lung, Q-PCR and IHC). The format is in vivo, mice. Particulars: 200 μg IMAB362, day 42. The procedure:
Animals were sacrificed on day 42 post graft. […] Human cells were immunohistochemically stained in tissue sections with anti-human MHC-class I antibodies. * p<0.05 (Kruskal-Wallis test). Error bars: mean±SD.
Metastasis treatments were performed with 10-12 Hsd:Athymic Nude-Foxn1^nu mice per treatment group. […] All mice were sacrificed at the same time point, as soon as the first symptoms of metastasis disease appeared (loss of weight, weakness, shortness of breath), or the first mouse died.
All their organs were macroscopically analyzed for metastasis. […] These organs were dissected into 4 equal pieces, two (lung: upper right and lower left lobe), which were stored for genomic DNA isolation. The other two pieces were formalin fixed and stored for IHC analysis (FIG. 2).
Preparation of genomic DNA and Q-PCR strategy: Genomic DNA was extracted from lung or liver tissue.
The Q-PCR strategy is based on the amplification of human DNA present in the metastases. The relative detection level of human DNA in the mouse lung sample correlates directly with the amount and/or size of the metastases.
The Q-PCR reaction was performed with primer pair #5861 5′-[…]-3′ (SEQ ID NO: 53) and #5862 5′-[…]-3′ (SEQ ID NO: 54) specifically amplifying the alpha-satellite DNA present in human chromosome 17, but not in mouse DNA. […] The curve was used to calculate (linear regression) the amount of human metastasis DNA present in mouse lung tissue. Q-PCR reactions were performed in 50 μl final volume comprised of 20 μl (200 ng) mouse lung DNA, 25 μl Sybr Green (Qiagen), 1.6 μl sense primer (10 μM) and 1.6 μl anti-sense primer and 1.8 μl H2O.
After 35 days the first mouse (isotype control group) died. Consequently, all mice were sacrificed on day 42 and lungs and livers were taken for IHC and Q-PCR analyses.
Q-PCR analysis of human DNA in the lungs of mice was repeated at least twice in triplicate. […] The surface of the positively stained cells in the lung sections was calculated using the ImageJ Program. […]

The test system of the next data set is Panc04.03. As to the kind of experiment: IMAB362-mediated ADCC assay. The class given is cell-based, human. Particulars: at least 2 donors.
The subject of the next data set is KATO-III. Put plainly: IMAB362-induced ADCC on gastric cancer cells, also after chemotherapy pretreatment. Particulars: KATO-III; up to 200 μg/ml, 24 hours, human PBMC E:T 40:1. The format is cell-based, human. The procedure:
Peripheral blood mononuclear cells (PBMCs) including NK cells, monocytes, […] or other effector cells from healthy human donors were purified by Ficoll Hypaque density centrifugation. Washed effector cells were seeded in X-Vivo medium. Kato III cells which express CLDN18.2 endogenously and are of gastric origin were used as target cells in this setting. Target cells stably expressed luciferase, lucifer yellow, which is oxidized by viable cells only.

In data set [2] the test system is CLDN18.2 on the cell surface of pancreatic cancer cell lines. As to the kind of experiment: Flow cytometry (FACS) of IMAB362 on pancreatic cancer cell lines. Particulars: 2E5 cells/100 μl with 50 μg/ml IMAB362. The format is binding, human. The procedure: Cells were harvested with PBS/5 mM EDTA or Trypsin/EDTA from an exponentially growing culture at 70-85% confluency. Cells were counted, centrifuged for 5 min (468 g) and the pellet was resuspended in FACS buffer (2% FCS, 0.1% sodium azide in PBS) adjusting the concentration to 2×10^6/ml. 100 μl cells were plated in round bottom 96-well plates and again centrifuged (5 min, 468 g). […] Then, 200 μl FACS buffer was added to each well and plates were centrifuged (5 min, 468 g). The supernatant was removed and washing was repeated. Secondary goat anti-human antibodies (FC specific, F(ab′)2 conjugated with APC (Dianova)) were diluted (1:100) in FACS buffer and 30 μl was added to each well. Plates were incubated for 30 min at 4° C. After incubation plates were washed again two times with 200 μl FACS buffer and the pellet was finally resuspended in 100 μl FACS buffer for measurement FACS Array Bioanalyzer (BD) according to GA_018_BD FACS Array bioanalyzer.

The nature of data set [3]: Repeated dose toxicity study in mice. The format is in vivo.

On to `Nc1ccn([C@@H]2O[C@H](CO)[C@@H](O)C2(F)F)c(=O)n1` [gemcitabine, 4-amino-1-(2-deoxy-2,2-difluoro-β-D-erythro-pentofuranosyl)pyrimidin-2(1H)-one], for which the tumor growth result in data set [1] is reported as “strongly inhibited in tumor growth”.
As for “IMAB362: chimeric IgG1 antibody directed against CLDN18.2, developed by Ganymed Pharmaceuticals AG”, the “surface of MHC-I stained cells in lung sections (IHC)” value is listed as “significant inhibition (P<0.05)” with Suit2-LVT metastases (versus PBS) and “not significant” in the data set with Suit2-LVT metastases (versus isotype control antibody). Moreover, the “percentage of human DNA in lungs (Q-PCR)” value in the data set with Suit2-LVT metastases (versus PBS and isotype control) was “significant decrease (P<0.05)”. For the same compound, the “ADCC EC50” value in the data set with Panc04.03 was “n.m”. Further, in the data set on KATO-III, the “maximum lysis rates (ADCC)” value is given as 80-100%. Besides, the “CLDN18 surface expression (FACS)” value in data set [2] (AsPC1) is 0.14%; in data set [2] (BxPC3 (ATCC)) it was 1.16%; in data set [2] (BxPC3 (ECACC)), 0.90%; in data set [2] (CAPAN1), 0.54%; in data set [2] (CFPAC1) it was 0.55%; in data set [2] (DANG) it was 1.19%. Further, the “CLDN18 surface expression (FACS)” value in data set [2] (HPAC) is 0.81%; in data set [2] (HPAFII), 10.00%; in data set [2] (HUP-T3), 0.23%; in data set [2] (HUP-T4), 5.30%; in data set [2] (KP-2), 0.54%; in data set [2] (MiaPaCa2), 0.22%. For the same compound, the “CLDN18 surface expression (FACS)” value is listed as 65% in data set [2] (Panc01); 7.30% in data set [2] (Panc03.27); 1.38% in data set [2] (Panc04.03); 15% in data set [2] (Panc05.04); 0.39% in data set [2] (Patu8902); 6.00% in data set [2] (Patu8988T). For the same compound, the “CLDN18 surface expression (FACS)” value in data set [2] (SW1990) is on record as 2.53%; in data set [2] (Su86.86) it was 1.51%; in data set [2] (Suit2) it was 0.41%; in data set [2] (YPAC) it was 0.23%. Besides, the gastric toxicity entry in data set [3] (any toxicity study) is “no gastric toxicity”. Further, the “tolerability of repeated doses i.v.” value in data set [3] (weekly for 3 months, up to 400 mg/kg) is listed as “well tolerated”.
